Assay results: patent US20250114396A1, “CHLORITE USES FOR STEM CELLS” (The Regents of the University of California, priority 2023, published 2025)
Where two headings read alike, the source gives them in different places.

Experiments:
[1] = tested on: patients with ALS
From the text: Non-limiting examples of measures of clinical response include the ALS Functional Rating Scale Revised (ALSFRS-R) and respiratory vital capacity.
Stem cell reprogramming for long term disease regulation is evidenced by finding normalization of biomarkers for at least one month after the last dose in the 6-month administration procedure.
A major subset of ALS patients show evidence for ongoing inflammation that potentially contributes to disease progression.

[2] = tested on: CD 34+ HSCs; details: LPS-activated HSC (10 ng/mL LPS overnight), single treatment with NP001 300 μM, grown 3 days, RNAseq
Description: CD 34+ HSCs were isolated from normal human adult bone marrow (>95% pure) and were either stimulated by 10 ng/mL LPS overnight or control medium. NP001 was added (300 μM; equivalent to phase 2 dose in humans) to washed HSC controls and LPS-activated HSC and the cells grown for 3 days in HSC medium. RNAseq with 100 M reads was performed on all cells and pathway analysis was performed.
By comparison with non-LPS-activated cells, LPS-activated pathways with p<10-15 were defined. […] NP001-treated, LPS-activated HSC gene expression pathways were evaluated in parallel. […] In addition, LPS-activated HSC were evaluated for factors (e.g., protein and genes), that were modulated following treatment with NP001.

[3] = ALS patients with plasma CRP levels >1.13 mg/L
[4] = clinical responders, 6-month pulse therapy, at least one month after last dose
[5] = mechanism of action studies in patients with ALS

Substance: sodium chlorite [NP001]
- disease progression [1, 3]: slowing disease progression
- innate immune function [1, 3]: restore innate immune function
- plasma epidermal growth factor (EGF), long term change [1, 4]: upregulation
- plasma hepatocyte growth factor (HGF), long term change [1, 4]: downregulation
- plasma interleukin-10 (IL-10), long term change [1, 4]: upregulation
- plasma interleukin-18 (IL-18), long term change [1, 4]: downregulation
- plasma lipopolysaccharide (LPS), long term change [1, 4]: downregulation
- plasma lipopolysaccharide binding protein (LBP), long term change [1, 4]: downregulation
- plasma neopterin, long term change [1, 4]: upregulation
- plasma soluble CD163 (sCD163), long term change [1, 4]: downregulation
- 8 biomarkers associated with microbial translocation ([1]; intermittent dosing (3 days/month), patients whose disease slowed): prolonged regulation
- disease progression [1, 5]: slowing disease progression
- innate immune function [1, 5]: restore innate immune function
- HSC gene expression pathways stimulated by LPS [2]: reversed
